Measured values as given in patent US20230074252A1, “DOSAGES AND METHODS FOR TREATING PULMONARY ARTERIAL HYPERTENSION WITH RODATRISTAT” (Altavant Sciences GmbH, priority 2020, published 2023).
Like-named read-outs stand apart in the source and are kept apart here. Each block holds one compound with its values, some of them ahead of it.

Columns and labels:
Type in all cases: in vitro ADME
CYP2C9 = CYP2C9 (Homo sapiens, UniProt P11712); assay: Direct and time-dependent CYP inhibition, pooled human liver microsomes; parameters: from tissue; host or cells: pooled human liver microsomes (n=200 donors); details: for IC50: human liver microsomes, read-out: In vitro IC50, direct inhibition, CYP2C9
Sequence of CYP2C9 (P11712 whole entry): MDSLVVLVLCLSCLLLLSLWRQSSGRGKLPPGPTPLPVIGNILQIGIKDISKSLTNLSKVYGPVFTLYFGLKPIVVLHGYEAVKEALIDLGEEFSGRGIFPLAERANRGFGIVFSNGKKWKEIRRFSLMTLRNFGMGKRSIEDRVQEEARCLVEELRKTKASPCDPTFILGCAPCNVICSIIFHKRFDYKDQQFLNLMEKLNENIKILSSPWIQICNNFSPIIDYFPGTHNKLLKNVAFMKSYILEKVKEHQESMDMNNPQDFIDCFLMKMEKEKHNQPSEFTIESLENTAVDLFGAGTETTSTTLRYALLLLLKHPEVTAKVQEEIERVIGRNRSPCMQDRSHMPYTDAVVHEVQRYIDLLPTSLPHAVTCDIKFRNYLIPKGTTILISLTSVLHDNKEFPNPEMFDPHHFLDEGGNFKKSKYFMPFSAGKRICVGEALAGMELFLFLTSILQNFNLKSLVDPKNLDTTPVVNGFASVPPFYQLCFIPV
Method: (§1) “mM^”=millimolar. CYP induction was evaluated using cultured human hepatocytes (from 3 donors) treated once daily for 3 days with RE/R concentrations to […].
(§2) The competitive inhibition of specific CYP isoforms was investigated for RVT-1201 and KAR5417 in human liver microsomes (HLM) (XT155056). Of the […] evaluated in vitro (CYP1A2, CYP2B6, CYP2C8, CYP2C9, CYP2D6, CYP3A4, CYP3A5), RVT-1201 IC50 estimates were determined for CYP2B6, CYP2C8 and CYP3A4 only. […] For each IC50 estimate, substrate concentration and Km were used to estimate RVT-1201 and KAR5417 Ki.

CYP2D6 [1] = target: T1, CYP2D6 (Homo sapiens, UniProt P10635); assay: as above; parameters: from tissue; host or cells: pooled human liver microsomes (n=200 donors)
T1 sequence (P10635 whole entry): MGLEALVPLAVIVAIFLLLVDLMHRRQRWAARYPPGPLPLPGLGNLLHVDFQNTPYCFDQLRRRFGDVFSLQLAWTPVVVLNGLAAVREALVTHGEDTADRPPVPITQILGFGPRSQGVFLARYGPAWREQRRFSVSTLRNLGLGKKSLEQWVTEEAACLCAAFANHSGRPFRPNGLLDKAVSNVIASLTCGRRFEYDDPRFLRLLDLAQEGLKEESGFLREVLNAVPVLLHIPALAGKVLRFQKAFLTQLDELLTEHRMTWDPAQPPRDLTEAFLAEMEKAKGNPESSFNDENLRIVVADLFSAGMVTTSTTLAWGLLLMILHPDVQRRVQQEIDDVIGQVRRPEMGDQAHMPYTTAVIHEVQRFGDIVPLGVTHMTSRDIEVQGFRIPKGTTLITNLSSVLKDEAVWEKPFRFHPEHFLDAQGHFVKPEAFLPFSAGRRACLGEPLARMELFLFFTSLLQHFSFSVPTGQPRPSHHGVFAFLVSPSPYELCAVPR
Method: as §1, §2

CYP2C19 = CYP2C19 (Homo sapiens, UniProt P33261); assay: as above; parameters: from tissue; host or cells: pooled human liver microsomes (n=200 donors)
Sequence of CYP2C19 (P33261 whole entry): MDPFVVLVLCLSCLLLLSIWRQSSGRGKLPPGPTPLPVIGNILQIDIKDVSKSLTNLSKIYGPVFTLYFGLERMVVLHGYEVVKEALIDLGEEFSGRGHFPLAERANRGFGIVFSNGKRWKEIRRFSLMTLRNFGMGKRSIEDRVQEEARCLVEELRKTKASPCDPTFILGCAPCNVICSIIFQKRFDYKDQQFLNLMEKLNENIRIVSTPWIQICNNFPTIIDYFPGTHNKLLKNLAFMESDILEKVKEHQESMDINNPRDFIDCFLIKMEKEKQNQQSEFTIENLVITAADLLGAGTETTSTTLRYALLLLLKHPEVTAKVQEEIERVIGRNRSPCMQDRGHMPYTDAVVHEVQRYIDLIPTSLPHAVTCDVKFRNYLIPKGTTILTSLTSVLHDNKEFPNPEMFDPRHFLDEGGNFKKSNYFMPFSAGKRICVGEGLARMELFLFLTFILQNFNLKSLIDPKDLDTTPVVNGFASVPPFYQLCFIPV
Method: as §1, §2

CYP2C8 = target: T2, CYP2C8 (Homo sapiens, UniProt P10632); assay: as above; parameters: from tissue; host or cells: pooled human liver microsomes (n=200 donors); details: for IC50: human liver microsomes, read-out: In vitro IC50, direct inhibition, CYP2C8; for Calculated R1 Value, CYP2C8: predicted @ 600 mg BID, R1=1+(Imax,unbound/Ki)
T2 sequence (P10632 1-490): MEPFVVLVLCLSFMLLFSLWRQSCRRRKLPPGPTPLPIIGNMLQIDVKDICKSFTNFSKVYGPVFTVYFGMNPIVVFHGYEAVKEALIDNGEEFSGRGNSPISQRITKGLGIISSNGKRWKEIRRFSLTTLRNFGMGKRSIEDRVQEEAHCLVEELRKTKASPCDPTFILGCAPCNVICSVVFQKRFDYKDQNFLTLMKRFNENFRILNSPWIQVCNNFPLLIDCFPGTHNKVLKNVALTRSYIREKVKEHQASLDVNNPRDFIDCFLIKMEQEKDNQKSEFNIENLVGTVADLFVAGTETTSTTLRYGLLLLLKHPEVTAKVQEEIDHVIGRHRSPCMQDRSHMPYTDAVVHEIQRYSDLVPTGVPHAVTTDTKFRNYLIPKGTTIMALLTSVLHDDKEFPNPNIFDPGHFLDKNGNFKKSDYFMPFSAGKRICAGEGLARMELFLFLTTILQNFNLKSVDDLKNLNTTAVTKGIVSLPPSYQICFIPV
Method: as §1, §2

CYP1A2 = target: T3, CYP1A2 (Homo sapiens, UniProt P05177); assay: as above; parameters: from tissue; host or cells: pooled human liver microsomes (n=200 donors)
T3 sequence (P05177 1-516): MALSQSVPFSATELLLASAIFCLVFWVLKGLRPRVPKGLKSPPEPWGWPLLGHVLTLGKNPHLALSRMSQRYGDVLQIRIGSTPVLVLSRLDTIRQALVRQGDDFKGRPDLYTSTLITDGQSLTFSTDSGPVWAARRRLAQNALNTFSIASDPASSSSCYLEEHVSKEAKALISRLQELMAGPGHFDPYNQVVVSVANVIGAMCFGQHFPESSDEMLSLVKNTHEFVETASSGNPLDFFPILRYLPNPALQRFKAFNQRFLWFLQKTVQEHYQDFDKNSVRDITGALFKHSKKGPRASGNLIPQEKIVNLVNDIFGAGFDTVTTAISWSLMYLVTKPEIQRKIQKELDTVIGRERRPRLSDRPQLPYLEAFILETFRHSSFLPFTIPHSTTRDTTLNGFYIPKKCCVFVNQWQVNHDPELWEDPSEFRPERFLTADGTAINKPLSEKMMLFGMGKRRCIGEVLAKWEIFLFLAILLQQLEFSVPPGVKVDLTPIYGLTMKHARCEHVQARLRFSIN
Method: as §1, §2

CYP2B6 [2] = target: T4, CYP2B6 (Homo sapiens, UniProt P20813); assay: as above; parameters: from tissue; host or cells: pooled human liver microsomes (n=200 donors); details: for IC50: human liver microsomes, read-out: In vitro IC50, direct inhibition, CYP2B6
T4 sequence (P20813 1-491): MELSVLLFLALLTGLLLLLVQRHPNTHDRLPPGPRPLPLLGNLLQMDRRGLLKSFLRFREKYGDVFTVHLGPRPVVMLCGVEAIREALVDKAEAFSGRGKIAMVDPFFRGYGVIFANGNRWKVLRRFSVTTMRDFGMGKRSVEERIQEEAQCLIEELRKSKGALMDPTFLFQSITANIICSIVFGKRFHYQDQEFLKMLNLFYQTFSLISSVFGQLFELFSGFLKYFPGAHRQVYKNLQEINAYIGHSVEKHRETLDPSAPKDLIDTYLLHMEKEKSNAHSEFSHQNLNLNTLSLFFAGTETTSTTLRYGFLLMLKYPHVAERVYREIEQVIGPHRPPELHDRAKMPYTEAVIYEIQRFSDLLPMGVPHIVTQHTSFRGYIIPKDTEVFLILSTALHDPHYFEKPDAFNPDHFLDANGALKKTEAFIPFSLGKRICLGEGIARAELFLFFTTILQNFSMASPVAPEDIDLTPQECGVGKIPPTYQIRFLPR
Method: as §1, §2

CYP2D6 [3] = target: T1, CYP2D6; assay: In vitro CYP substrate assessment (victim potential)
CYP3A4 = CYP3A4 (Homo sapiens, UniProt P08684); assay: as above
Sequence of CYP3A4 (P08684 whole entry): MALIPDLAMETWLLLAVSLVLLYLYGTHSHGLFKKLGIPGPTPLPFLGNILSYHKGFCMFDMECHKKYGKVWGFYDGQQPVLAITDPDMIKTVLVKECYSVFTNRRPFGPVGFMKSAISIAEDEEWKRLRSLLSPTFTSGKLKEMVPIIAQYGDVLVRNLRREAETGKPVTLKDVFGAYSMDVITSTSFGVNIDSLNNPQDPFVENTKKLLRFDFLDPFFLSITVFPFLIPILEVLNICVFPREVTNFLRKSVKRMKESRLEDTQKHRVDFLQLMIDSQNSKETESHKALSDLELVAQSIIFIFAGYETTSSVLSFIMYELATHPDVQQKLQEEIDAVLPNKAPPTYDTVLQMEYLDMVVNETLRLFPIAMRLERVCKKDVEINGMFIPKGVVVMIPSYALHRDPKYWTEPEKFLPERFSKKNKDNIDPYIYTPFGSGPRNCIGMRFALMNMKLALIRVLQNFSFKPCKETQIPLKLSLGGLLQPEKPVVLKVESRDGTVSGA

CYP3A4/5 = CYP3A4/5 (Homo sapiens, UniProt P08684); assay: Direct and time-dependent CYP inhibition, pooled human liver microsomes
Sequence of CYP3A4/5 (P08684 2-503): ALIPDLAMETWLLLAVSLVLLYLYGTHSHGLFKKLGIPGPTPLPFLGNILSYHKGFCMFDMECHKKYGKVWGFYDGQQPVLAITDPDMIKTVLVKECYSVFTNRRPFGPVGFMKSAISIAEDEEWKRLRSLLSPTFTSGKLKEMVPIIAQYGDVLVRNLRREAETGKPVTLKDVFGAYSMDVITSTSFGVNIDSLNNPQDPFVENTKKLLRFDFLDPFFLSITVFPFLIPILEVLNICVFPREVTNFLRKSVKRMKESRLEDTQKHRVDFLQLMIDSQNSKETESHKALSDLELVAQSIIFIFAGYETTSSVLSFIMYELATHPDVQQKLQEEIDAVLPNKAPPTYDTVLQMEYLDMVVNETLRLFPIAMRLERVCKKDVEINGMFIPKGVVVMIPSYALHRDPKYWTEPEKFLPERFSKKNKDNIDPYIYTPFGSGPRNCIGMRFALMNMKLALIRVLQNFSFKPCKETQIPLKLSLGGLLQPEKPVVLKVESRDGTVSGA
Method: as §1, §2

CYP2B6 [4] = target: T4, CYP2B6; assay: In vitro CYP substrate assessment (victim potential)
[5] = predicted @ 600 mg BID, testosterone
[6] = human, pooled human liver microsomes, 30 μM, range given across CYPs 2B6, 2C9 and 3A4/5

- IC50 (CYP2C9): > 30 µM
- IC50 (CYP2D6 [1]; human liver microsomes, read-out: In vitro IC50, direct inhibition, CYP2D6): > 30 µM
- IC50 (CYP2C19; human liver microsomes, read-out: In vitro IC50, direct inhibition, CYP2C19): > 30 µM
- IC50 (CYP2C8): 2.8 µM
- Calculated R1 Value, CYP2C8 (CYP2C8): <1.02
- IC50 (CYP1A2; human liver microsomes, read-out: In vitro IC50, direct inhibition, CYP1A2): > 30 µM
- IC50 (CYP2B6 [2]): 13 µM
- Calculated R1 Value, CYP2B6 (CYP2B6 [2]; predicted @ 600 mg BID, R1=1+(Imax,unbound/Ki)): <1.02
- In vitro substrate? CYP2D6 (CYP2D6 [3]): No
- In vitro substrate? CYP3A4 (CYP3A4): No
- IC50 (CYP3A4/5; human, pooled human liver microsomes, probe midazolam (1′ hydroxylation), midazolam 1′ hydroxylation, read-out: In vitro IC50, direct inhibition, CYP3A4): 13 µM
- IC50 (CYP3A4/5; human, pooled human liver microsomes, probe testosterone (6β hydroxylation), testosterone 6β hydroxylation, read-out: In vitro IC50, direct inhibition, CYP3A4 (T)): 23 µM
- Calculated R1 Value, CYP3A4 (T) (CYP3A4/5; [5]): <1.02
- R1gut, CYP3A4 (T) (CYP3A4/5; [5]): R1gut = 355
- In vitro substrate? CYP2B6 (CYP2B6 [4]): No
SMILES: CCOC(=O)[C@@H]1CC2(CCN(c3cc(O[C@H](c4ccc(Cl)cc4-c4ccccc4)C(F)(F)F)nc(N)n3)CC2)CN1 [Rodatristat ethyl, (S)-ethyl 8-(2-amino-6-((R)-1-(5-chloro-[1,1′-biphenyl]-2-yl)-2,2,2-trifluoroethoxy)pyrimidin-4-yl)-2,8-diazaspiro[4.5]decane-3-carboxylate]
- Direct inhibition of CYP2C9 (in words) (CYP2C9): Neither rodatristat ethyl nor rodatristat inhibit

- IC50 (CYP2C9): > 30 µM
- inhibition at 30 µM (CYP2C9; [6]): 27 to 45%
- Direct inhibition of CYP2D6 (in words) (CYP2D6 [1]): did not inhibit
- Direct inhibition of CYP2C19 (in words) (CYP2C19): did not inhibit
- Ki (CYP2C8; equivalent to IC50/2): 1.4 µM
- IC50 (CYP2C8): 2.8 µM
- Calculated R1 Value, CYP2C8 (CYP2C8): <1.02
- Calculated R1 Value, CYP2C8 (CYP2C8; listed as rodatristat): <1.02
- Direct inhibition of CYP1A2 (in words) (CYP1A2): did not inhibit
- IC50 (CYP2B6 [2]): > 30 µM
- inhibition at 30 µM (CYP2B6 [2]; [6]): 27 to 45%
- In vitro substrate? CYP2D6 (CYP2D6 [3]): No
- In vitro substrate? CYP3A4 (CYP3A4): No
- inhibition at 30 µM (CYP3A4/5; [6]): 27 to 45%
- IC50 (CYP3A4/5; human, pooled human liver microsomes, probe substrate not stated, read-out: IC50, CYP3A4/5): > 30 µM
- In vitro substrate? CYP2B6 (CYP2B6 [4]): No
SMILES: Nc1nc(O[C@H](c2ccc(Cl)cc2-c2ccccc2)C(F)(F)F)cc(N2CCC3(CC2)CN[C@H](C(=O)O)C3)n1 [Rodatristat, (S)-8-(2-amino-6-((R)-1-(5-chloro-[1,1′-biphenyl]-2-yl)-2,2,2-trifluoroeth-oxy)pyrimidin-4-yl)-2,8-diazaspiro[4.5]decane-3-carboxylic acid]
- Direct inhibition of CYP2C9 (in words) (CYP2C9): Neither rodatristat ethyl nor rodatristat inhibit
